The values that follow come from patent publication US20100267712A1, “ISOINDOLINE COMPOUNDS FOR THE TREATMENT OF SPINAL MUSCULAR ATROPHY AND OTHER USES” (The United States of America, as represented by the …, priority 2007, published 2010).

Data set [1] relates to SMN2-linked luciferase-reporter gene construct. Kind of data set: SMN Splice Reporter Assay (SMN2-linked luciferase reporter). The data set is classed as cell-based. To be noted: for EC50: cervical carcinoma cell lines, SMN2 splice luciferase reporter; for Fold Increase: fold-increase of luciferase over baseline reading of transformed cells without any test compound. In a few lines: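 Cervical carcinoma cells carrying an SMN2-luciferase splicing reporter, in-frame only with exon 7 inclusion, were treated with compound. Luciferase activity reported as fold increase over untreated transformed cells, with EC50 derived.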

The test system of data set [2] is SMN-containing gems in type 1 SMA patient fibroblasts (3813 cells). Kind of data set: SMN-containing gem count in SMA patient fibroblasts. In kind it is cell-based, human. To be noted: 48 hours, 3813 fibroblasts. An excerpt: SMN protein can be found in punctate nuclear particles called “gems” (Liu and Dreyfuss, EMBO J, 15 (14): 3555-3565 (1996)). In fibroblast cells derived from SMA patients, the number of gems corresponds to disease severity as follows: severe type 1 patients have approximately 5 gems per 100 nuclei; mild type 3 patients have 20-50 gems per 100 nuclei; normal individuals have approximately 100-150 gems per 100 nuclei (Coovert et al., Hum Mol Genet, 6 (8): 1205-1214 (1997), Young et al., Exp Cell Res, 265 (2): 252-261 (2001)).
Gems are detectable by immunohistochemistry and gem counts in patient fibroblasts have been used to test the ability of compounds to increase SMN protein levels (Mattis et al., Hum Genet, 120: 589-601 (2006)). Following these methods, fibroblast cells from a type 1 SMA patient (3813 cells, Coriell Cell Repositories) were treated for 48 hours with a compound of the invention. The cells were then fixed and incubated with a monoclonal antibody against SMN (4B7, Wolstencroft et al., Hum Mol Genet, 14: 1199-1210 (2005)). A FITC-conjugated anti-mouse secondary antibody was used to visualize the labeled gems. A positive control in these experiments was provided by fibroblasts from the same patient treated with 1000 μM valproic acid.

For `COc1ccc2c(c1)C(=O)N(c1ccc3ccn(C)c3c1)C2` [Example 20, 6-methoxy-2-(1-methyl-1H-indol-6-yl)isoindolin-1-one], the melting point was 158 to 161 °C.
Still for that read-out and setting: the value for `CC(=O)Nc1cccc2c1CN(c1ccc3ccn(C)c3c1)C2=O` [Example 21, N-(2-(1-methyl-1H-indol-6-yl)-1-oxoisoindolin-4-yl)acetamide] was 180 to 184 °C; that for `COc1ccc2c(c1)C(=O)N(c1ccc3ccn(CC#N)c3c1)C2` [Example 22, 2-(6-(6-methoxy-1-oxoisoindolin-2-yl)-1H-indol-1-yl)acetonitrile] was 218 to 220 °C; that for `Cn1ccc2ccc(N3Cc4ccc(-c5cccnc5)cc4C3=O)cc21` [Example 24, 2-(1-methyl-1H-indol-6-yl)-6-(pyridin-3-yl)isoindolin-1-one] was 187 to 188 °C.
The same measure, in the same setting: in the case of `COc1ccc2c(c1)CN(c1ccc3sccc3c1)C2=O` [Example 25, 2-(benzo[b]thiophen-5-yl)-5-methoxyisoindolin-1-one] it was 183 to 186 °C.
On to `O=C1c2cc(O)ccc2CN1c1ccc2sccc2c1` [Example 26, 2-(benzo[b]thiophen-5-yl)-6-hydroxyisoindolin-1-one], for which the melting point was in the range of 226 to 228 °C.
Take `CCOc1ccc2c(c1)C(=O)N(c1ccc3sccc3c1)C2` [Example 27, 2-(benzo[b]thiophen-5-yl)-6-ethoxyisoindolin-1-one]: the melting point was 127 to 129 °C.
Still for that read-out and setting: the value for `Nc1ccc2c(c1)C(=O)N(c1ccc3ccsc3c1)C2` [Example 29, 6-amino-2-(benzo[b]thiophen-6-yl)isoindolin-1-one] was 233 to 236 °C; that for `CN(C)c1ccc2c(c1)C(=O)N(c1ccc3ccsc3c1)C2` [Example 30, 2-(benzo[b]thiophen-6-yl)-6-(dimethylamino)isoindolin-1-one] was 195 to 197 °C; that for `CN(C)c1ccc2c(c1)C(=O)N(c1ccc3c(c1)CCN3C)C2` [Example 31, 6-(dimethylamino)-2-(1-methylindolin-5-yl)isoindolin-1-one] was 268 to 270 °C.
Same read-out and setting: the value for `COc1ccc2c(c1)C(=O)N(c1ccc3ncccc3c1)C2` [Example 32, 6-methoxy-2-(quinolin-6-yl)isoindolin-1-one] was 194 to 197 °C.
Still for that read-out and setting: in the case of `COc1ccc2c(c1)C(=O)N(c1ccc3c(ccc[n+]3[O-])c1)C2` [Example 33, 6-(6-methoxy-1-oxoisoindolin-2-yl)quinoline 1-oxide] it was 251 to 255 °C.
Regarding `COc1ccc2c(c1)C(=O)N(c1ccc3[nH]c(=O)ccc3c1)C2` [Example 34, 6-(6-methoxy-1-oxoisoindolin-2-yl)quinolin-2(1H)-one], the melting point was 305 to 310 °C.
With `COc1ccc2c(c1)C(=O)N(c1ccc3[nH]c(=O)[nH]c3c1)C2` [Example 35, 5-(6-methoxy-1-oxoisoindolin-2-yl)-1H-benzo[d]imidazol-2(3H)-one], the melting point was 355 to 360 °C (dec.).
In turn, `COc1ccc2c(c1)C(=O)N(c1ccc3c(c1)n(C)c(=O)n3C)C2` [Example 36, 5-(6-methoxy-1-oxoisoindolin-2-yl)-1,3-dimethyl-1H-benzo[d]imidazol-2(3H)-one] had a melting point of 268 to 270 °C.
The same measure, in the same setting: the value for `COc1ccc2c(c1)C(=O)N(c1ccc3c(c1)NCCN3)C2` [Example 37, 6-methoxy-2-(1,2,3,4-tetrahydroquinoxalin-6-yl)isoindolin-1-one] was 159 to 163 °C.
`COc1ccc2c(c1)C(=O)N(c1ccc3c(c1)N(C)CCN3C)C2` [Example 38, 2-(1,4-dimethyl-1,2,3,4-tetrahydroquinoxalin-6-yl)-6-methoxyisoindolin-1-one] returned a melting point of 137 to 142 °C.
Turning to `COc1ccc2c(c1)C(=O)N(c1ccc(C(C)C)cn1)C2` [Example 39, 2-(5-isopropylpyridin-2-yl)-6-methoxyisoindolin-1-one], the melting point lay within 109 to 110 °C.
The same measure, in the same setting: in the case of `COc1ccc2c(c1)C(=O)N(c1ccc3c(ccn3C)n1)C2` [Example 41, 6-methoxy-2-(1-methyl-1H-pyrrolo[3,2-b]pyridin-5-yl)isoindolin-1-one] it was 230 to 234 °C; in that of `COc1ccc2c(c1)C(=O)N(c1cc3ccn(C)c3cn1)C2` [Example 42, 6-methoxy-2-(1-methyl-1H-pyrrolo[2,3-c]pyridin-5-yl)isoindolin-1-one], 205 to 210 °C; in that of `COc1ccc2c(c1)C(=O)N(c1cnc3c(ccn3C)c1)C2` [Example 43, 6-methoxy-2-(1-methyl-1H-pyrrolo[2,3-b]pyridin-5-yl)isoindolin-1-one], 198 to 199 °C.
On the same count and under the same terms, the value for `COc1ccc2c(c1)C(=O)N(c1ccc3c(cnn3C)c1)C2` [Example 44, 6-methoxy-2-(1-methyl-1H-indazol-5-yl)isoindolin-1-one] was 213 to 214 °C.
The same measure, in the same setting: in the case of `COc1ccc2c(c1)C(=O)N(c1ccc3c(c1)CCCN3C)C2` [Example 45, 6-methoxy-2-(1-methyl-1,2,3,4-tetrahydroquinolin-6-yl)isoindolin-1-one] it was 123 to 127 °C.
Molecule `O=C1c2ccccc2CN1c1ccc2c(c1)OCCO2` [Example 46, 2-(2,3-dihydrobenzo[b][1,4]dioxin-6-yl)isoindolin-1-one] yielded a melting point of 170 to 176 °C.
The same measure, in the same setting: in the case of `COc1ccc2c(c1)C(=O)N(c1ccc3ncsc3c1)C2` [Example 47, 2-(benzo[d]thiazol-6-yl)-6-methoxyisoindolin-1-one] it was 204 to 207 °C; in that of `COc1ccc2c(c1)C(=O)N(c1ccc3ccoc3c1)C2` [Example 48, 2-(benzofuran-6-yl)-6-methoxyisoindolin-1-one], 141 to 143 °C; in that of `COc1ccc2c(c1)C(=O)N(c1ccc3nc(C)ncc3c1)C2` [Example 49, 6-methoxy-2-(2-methylquinazolin-6-yl)isoindolin-1-one], 245 to 247 °C.
On the same count and under the same terms, the value for `O=C1c2cc(OC(F)F)ccc2CN1c1ccc2c(c1)CCC2` [Example 50, 6-(difluoromethoxy)-2-(2,3-dihydro-1H-inden-5-yl)isoindolin-1-one] was 137 to 139 °C; that for `COc1ccc2c(c1)C(=O)N(c1ccc3cccnc3c1)C2` [Example 51, 6-methoxy-2-(quinolin-7-yl)isoindolin-1-one] was 220 to 223 °C.
With `COc1ccc2c(c1)C(=O)N(c1ccc3c(ccn3C)c1)C2` [Example 118417], in data set [1], the EC50 was determined as 45 nM and the “Fold Increase” value amounted to 1.485. In addition, the “Average number of gems per 100 nuclei” value in data set [2] (3 μM compound) is 53.
Turning to `COc1ccc2c(c1)C(=O)N(c1ccc3ccsc3c1)C2` [Example 118739], in data set [1], the midpoint of the response, the EC50, lay at 102 nM and the “Fold Increase” value is 1.617. The “Average number of gems per 100 nuclei” value in data set [2] (1 μM compound) is recorded as 76.
In the case of `COc1ccc2c(c1)C(=O)N(c1ccc3cc[nH]c3c1)C2` [Example 119869], in data set [1], the EC50 was determined as 106 nM and the “Fold Increase” value was determined as 1.716. In addition, the “Average number of gems per 100 nuclei” value in data set [2] (1 μM compound) is 49.
On to `COc1ccc2c(c1)C(=O)N(c1ccc3c(c1)CCCN3C)C2` [Example 120121], for which, in data set [1], the EC50 came out at 20 nM and the “Fold Increase” value came out at 1.702. Moreover, the “Average number of gems per 100 nuclei” value in data set [2] (0.1 μM compound) is 16.
Turning to `COc1ccc2c(c1)C(=O)N(c1ccc3ncccc3c1)C2` [Example 120286], in data set [1], the EC50 was 30 nM and the “Fold Increase” value was 1.713. In data set [2] (0.1 μM compound), the “Average number of gems per 100 nuclei” value is 132.
On to `COc1ccc2c(c1)C(=O)N(c1ccc3c(c1)cc(C)n3C)C2` [Example 120595], for which, in data set [1], it took 114 nM to reach a half-maximal effect (EC50) and the “Fold Increase” value was found to be 1.531. The “Average number of gems per 100 nuclei” value in data set [2] (1 μM compound) was 32.
The corresponding values for `O=C1c2cc(OC(F)F)ccc2CN1c1ccc2ncccc2c1` [Example 120790] are 142 nM, 1.926 and 27.
Take `CC(=O)Nc1ccc2c(c1)C(=O)N(c1ccc3ccn(C)c3c1)C2` [Example 121505]: in data set [1], the EC50 was found to be 203 nM and the “Fold Increase” value is recorded as 1.817. In data set [2] (1 μM compound), the “Average number of gems per 100 nuclei” value is 47.
With `CCC(C)c1ccc2c(c1)C(=O)N(c1ccc3c(ccn3C)c1)C2` (centres unmarked) [Example 122182], in data set [1], the EC50 was determined as 101 nM and the “Fold Increase” value stood at 1.539. The “Average number of gems per 100 nuclei” value in data set [2] (1 μM compound) was 18.
On to `Cn1ccc2cc(N3Cc4ccc(N5CCCC5)cc4C3=O)ccc21` [Example 122317], for which, in data set [1], the EC50 amounted to 187 nM and the “Fold Increase” value is listed as 1.47. The “Average number of gems per 100 nuclei” value in data set [2] (1 μM compound) is 45.
For `CN(C)c1ccc2c(c1)C(=O)N(c1ccc3c(ccn3C)c1)C2` [Example 124429] the same measures were 24 nM, 1.594 and 44.
